This note sets out measurements from US20070054353A1, “Nuclear receptor transcriptional corepressor and uses thereof” (priority 2002, published 2007).

Holding throughout (type): cell-based
Experiment [1] addresses T1, VDR (Homo sapiens, UniProt P11473).
T1 construct: expressed in transfected cells; host or cells: COS-7
T1 sequence (P11473 1-427): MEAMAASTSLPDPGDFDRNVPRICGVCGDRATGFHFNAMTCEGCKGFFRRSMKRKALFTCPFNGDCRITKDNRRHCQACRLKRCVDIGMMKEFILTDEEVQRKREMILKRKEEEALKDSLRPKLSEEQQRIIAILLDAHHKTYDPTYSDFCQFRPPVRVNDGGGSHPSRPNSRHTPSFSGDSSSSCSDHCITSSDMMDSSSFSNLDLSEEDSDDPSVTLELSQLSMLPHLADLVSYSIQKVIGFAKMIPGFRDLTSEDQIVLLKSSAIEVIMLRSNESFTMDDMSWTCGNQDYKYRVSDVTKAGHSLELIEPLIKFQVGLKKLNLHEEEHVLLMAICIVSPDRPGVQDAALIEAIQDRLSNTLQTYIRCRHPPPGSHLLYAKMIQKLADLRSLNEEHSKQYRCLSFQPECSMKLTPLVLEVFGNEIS
Kind of experiment: Transient transfection luciferase reporter, VDR transactivation in COS-7 cells. Conditions: TSA 3 μM, COS-7 cells. The protocol: (§1) All cell lines were cultured under the recommended conditions. COS-7 cells grown in […] in DMEM without phenol red, supplemented with 10% FBS were transfected in medium without serum with lipofectamine 2000 (Invitrogen, Burlington, Ont.) with 100 ng of nuclear receptor expression vectors as indicated, 200 ng of TIF-2 or TIF-2.1, as indicated, 250 ng of reporter plasmid, 250 ng of infemal control vector pCMV-βgal, and various concentrations of LCoR/pSG5 or LCoR-LSKAA/pSG5 expression vectors and pSG5 carrier. Medium was replaced 24 h after transfection by a medium containing charcoal-stripped serum and ligand (100 nM) and TSA (3 μM) for 18 h, as indicated. Cells were harvested in 200 […] of reporter lysis buffer (Promega).
(§2) COS-7 cells were cotransfected with expression vectors for ERα HEG0 (A and C) or GR (D) or PR (F) or VDR (H), ERE3-TATA-pXP2 (A and C), GRE5/pXP2 (D and F) or VDRE3tk/pXP2 (H) luciferase reporter vectors, pCMV-β-gal as internal control, and LCoR/pSG5 or LSKAA/pSG5 expression vectors as indicated. Cells were treated with 10^−7M of hormones (solid bars) or vehicle (open bars). Normalized luciferase activities (RLU) are the means±SEM from at least 3 experiments. […] Cells were transfected as in FIG. 5A with LCoR, TIF-2 or TIF2.1 as indicated. […]
A general note: In a reporter assay the amount or activity of a reporter protein is the signal.

Experiment [2] relates to 5×17 mer-tk promoter. Kind of experiment: GAL4-LCoR repression of 5×17 mer-tk promoter in COS-7 cells. Conditions: TSA 3 μM. Here is the method:
as §1, §2

For experiment [3], the target named is T2, ERα (Homo sapiens, UniProt P03372).
T2 construct: expressed in transfected cells; host or cells: COS-7
T2 sequence (P03372 1-595): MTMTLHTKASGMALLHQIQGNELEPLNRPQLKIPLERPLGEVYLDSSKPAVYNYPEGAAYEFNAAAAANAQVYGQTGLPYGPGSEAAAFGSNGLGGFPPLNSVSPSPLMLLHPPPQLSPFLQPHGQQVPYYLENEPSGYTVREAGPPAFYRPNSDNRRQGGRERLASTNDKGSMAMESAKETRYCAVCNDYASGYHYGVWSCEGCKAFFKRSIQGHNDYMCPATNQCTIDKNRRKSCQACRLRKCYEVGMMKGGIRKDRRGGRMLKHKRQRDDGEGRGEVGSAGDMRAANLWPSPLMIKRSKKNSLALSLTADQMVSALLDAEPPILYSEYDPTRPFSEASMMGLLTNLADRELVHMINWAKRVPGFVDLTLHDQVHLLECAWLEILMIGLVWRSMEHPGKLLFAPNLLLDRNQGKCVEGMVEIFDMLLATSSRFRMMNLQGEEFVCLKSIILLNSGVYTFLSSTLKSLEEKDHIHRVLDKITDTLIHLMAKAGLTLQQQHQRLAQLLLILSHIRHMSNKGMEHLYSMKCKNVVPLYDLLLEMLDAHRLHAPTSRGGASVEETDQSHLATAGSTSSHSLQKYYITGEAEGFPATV
Kind of experiment: Transient transfection luciferase reporter, ERα transactivation in COS-7 cells. Conditions: TSA 3 μM, COS-7 cells. The protocol: as §1, §2

Experiment [4] deals with T3, GR (Homo sapiens, UniProt P04150).
T3 construct: expressed in transfected cells; host or cells: COS-7
T3 sequence (P04150 1-777): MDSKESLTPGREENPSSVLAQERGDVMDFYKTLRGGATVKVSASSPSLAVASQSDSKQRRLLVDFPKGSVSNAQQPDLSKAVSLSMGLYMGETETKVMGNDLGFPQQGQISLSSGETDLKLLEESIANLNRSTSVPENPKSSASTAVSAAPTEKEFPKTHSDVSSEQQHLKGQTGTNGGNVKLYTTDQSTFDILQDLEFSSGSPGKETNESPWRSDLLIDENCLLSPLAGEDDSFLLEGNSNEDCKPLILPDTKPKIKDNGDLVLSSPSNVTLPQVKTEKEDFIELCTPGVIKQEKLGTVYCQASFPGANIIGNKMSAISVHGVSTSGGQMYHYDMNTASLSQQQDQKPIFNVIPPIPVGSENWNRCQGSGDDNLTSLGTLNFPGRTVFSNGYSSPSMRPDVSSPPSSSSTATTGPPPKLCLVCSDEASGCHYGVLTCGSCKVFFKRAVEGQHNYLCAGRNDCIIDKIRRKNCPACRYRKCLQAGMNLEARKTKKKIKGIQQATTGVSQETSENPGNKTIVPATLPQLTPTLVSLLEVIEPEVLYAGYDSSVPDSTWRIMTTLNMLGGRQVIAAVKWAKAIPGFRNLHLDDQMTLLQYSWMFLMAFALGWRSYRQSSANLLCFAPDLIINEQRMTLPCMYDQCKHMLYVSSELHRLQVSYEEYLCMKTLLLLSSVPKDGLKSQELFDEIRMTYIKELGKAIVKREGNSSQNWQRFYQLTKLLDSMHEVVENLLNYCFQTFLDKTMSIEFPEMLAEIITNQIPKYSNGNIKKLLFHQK
The experiment in a line: Transient transfection luciferase reporter, GR transactivation in COS-7 cells. Conditions: TSA 3 μM, COS-7 cells. Here is the method: as §1, §2

As to `CC(/C=C/C(=O)NO)=C\[C@@H](C)C(=O)c1ccc(N(C)C)cc1` [TSA, trichostatin A], in experiment [1], the “effect on LCoR repression of VDR function” value was “little or no effect”. The “effect on repression by GAL-LCoR” value in experiment [2] was “little or no effect”. The “effect on LCoR-dependent repression of ERα function” value in experiment [3] was “completely abolished”. In addition, the “effect on LCoR-dependent repression of GR function” value in experiment [4] is “completely abolished”.
